Results on 54 molecules are retold here after patent US7037905B2, “Pharmaceutical use of boronic acids and esters thereof” (Novo Nordisk A/S, priority 2002, dated 2006).

Read-outs that look alike come from different tables or passages of the source.

This assay has as its target T1, HSL (Homo sapiens, UniProt Q05469).
T1 sequence (Q05469 1-1076): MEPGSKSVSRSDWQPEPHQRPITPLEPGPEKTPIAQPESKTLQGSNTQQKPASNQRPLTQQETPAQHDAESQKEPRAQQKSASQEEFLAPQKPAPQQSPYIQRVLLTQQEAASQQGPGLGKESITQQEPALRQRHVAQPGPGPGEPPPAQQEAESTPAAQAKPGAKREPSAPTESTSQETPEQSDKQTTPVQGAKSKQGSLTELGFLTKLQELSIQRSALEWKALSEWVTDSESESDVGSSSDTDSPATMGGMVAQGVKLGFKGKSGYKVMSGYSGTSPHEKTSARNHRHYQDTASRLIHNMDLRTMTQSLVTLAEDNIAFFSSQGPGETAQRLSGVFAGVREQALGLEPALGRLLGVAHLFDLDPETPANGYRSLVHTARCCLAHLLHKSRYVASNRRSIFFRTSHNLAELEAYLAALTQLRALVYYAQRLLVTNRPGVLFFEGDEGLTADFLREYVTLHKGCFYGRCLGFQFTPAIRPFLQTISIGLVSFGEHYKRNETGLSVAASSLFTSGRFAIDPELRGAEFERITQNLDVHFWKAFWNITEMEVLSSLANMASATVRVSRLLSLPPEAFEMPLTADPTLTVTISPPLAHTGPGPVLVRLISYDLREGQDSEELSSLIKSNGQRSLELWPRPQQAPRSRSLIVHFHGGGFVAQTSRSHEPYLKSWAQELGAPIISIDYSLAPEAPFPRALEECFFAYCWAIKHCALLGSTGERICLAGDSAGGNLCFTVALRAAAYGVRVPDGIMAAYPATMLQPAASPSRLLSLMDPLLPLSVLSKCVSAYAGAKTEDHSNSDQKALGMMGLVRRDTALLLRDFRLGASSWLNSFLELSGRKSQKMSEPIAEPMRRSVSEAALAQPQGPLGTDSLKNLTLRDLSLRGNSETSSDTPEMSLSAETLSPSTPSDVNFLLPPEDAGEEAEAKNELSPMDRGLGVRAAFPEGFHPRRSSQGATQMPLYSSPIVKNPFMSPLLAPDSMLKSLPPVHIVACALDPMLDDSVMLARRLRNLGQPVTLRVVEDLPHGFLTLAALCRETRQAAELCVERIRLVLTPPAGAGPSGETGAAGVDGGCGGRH
Briefly: TEST 3180.2 HSL: percent inhibition at 10 μM, 3H-Triolein lipid emulsion. Format: biochemical. The note with it: for activity at 10 µM: read-out: TEST 3180.2 HSL Activity (%).

Where [1] appears, read: 10 μM concentration, percent activity relative to an un-inhibited sample, 30 min preincubation, 30 min reaction at 25° C.

As to “3-Fluoro-4-phenylboronic acid [Example 72]”, under “10 µM”, the “TEST 3180.2 HSL Activity (%)” value is given as 97%.

Turning to `OB(O)c1ccc(OCc2ccccc2)cc1` [Example 33, 4-Benzyloxyphenylboronic acid], the activity at 10 µM under setting [1] worked out at 85%. As to `CC1(C)COB(c2cc(F)cc(F)c2)OC1` [Example 35, 2-(3,5-DIFLUOROPHENYL)-5,5-DIMETHYL-1,3,2-DIOXABORINANE], the activity at 10 µM under setting [1] was determined as 38%. In the case of `CC1(C)COB(c2ccc(Br)cc2)OC1` [Example 37, 2-(4-BROMOPHENYL)-5,5-DIMETHYL-1,3,2-DIOXABORINANE], the activity at 10 µM under setting [1] worked out at 83%. Turning to `CC1(C)COB(c2ccccc2Cl)OC1` [Example 38, 2-(2-chloroPHENYL)-5,5-DIMETHYL-1,3,2-DIOXABORINANE], the activity at 10 µM under setting [1] was determined as 89%. The same measure, in the same setting: to `CC1(C)COB(c2ccccc2C#N)OC1` [Example 39, 2-(5,5-Dimethyl-[1,3,2]dioxaborinan-2-yl)-benzonitrile] belongs 97%; to `CC1(C)COB(c2ccccc2F)OC1` [Example 40, 2-(2-Fluoro-phenyl)-5,5-dimethyl-[1,3,2]dioxaborinane], 68%; to `CCOC(=O)c1ccccc1B1OCC(C)(C)CO1` [Example 42, 2-(5,5-Dimethyl-[1,3,2]dioxaborinan-2-yl)-benzoic acid ethyl ester], 93%. On the same count and under the same terms, the result for `COc1ccc(Cl)cc1B(O)O` [Example 43, 5-CHLORO-2-METHOXYPHENYLBORONIC ACID] reads 36%; that for `OB(O)c1cc(Br)cc(Br)c1` [Example 44, 3,5-Dibromophenylboronic acid], 71%; that for `CCOc1cccc(B(O)O)c1` [Example 45, 3-Ethoxyphenylboronic acid], 90%.

As for `OB(O)c1cccc(-c2ccccc2)c1` [Example 46, 3-phenylphenylboronic acid], under setting [1], the activity at 10 µM was found to be 96%. Take `OB(O)c1ccc(F)cc1` [Example 47, 4-fluorophenylboronic acid]: under setting [1], the activity at 10 µM was 65%. Consider `OB(O)c1ccccc1Br` [Example 48, 2-Bromophenylboronic acid], for which the activity at 10 µM under setting [1] amounted to 81%. Still for that read-out and setting: the result for `OB(O)c1cccc(Br)c1` [Example 49, 3-Bromophenylboronic acid] reads 33%; that for `OB(O)c1c(Cl)cccc1Cl` [Example 50, 2,6-Dichlorophenylboronic acid], 88%. Take `Cc1cccc(B(O)O)c1` [Example 51, 3-Methylphenylboronic acid]: the activity at 10 µM under setting [1] was determined as 64%. On the same count and under the same terms, to `OB(O)c1ccccc1Cl` [Example 52, 2-Chlorophenylboronic acid] belongs 86%; to `OB(O)c1cccc(Cl)c1` [Example 53, 3-Chlorophenylboronic acid], 34%; to `OB(O)c1cccc(OC(F)(F)F)c1` [Example 54, 3-(TRIFLUOROMETHOXY)BENZENEBORONIC ACID], 27%. Regarding `OB(O)c1cccc(C(F)(F)F)c1` [Example 55, 3-Trifluoromethylphenylboronic acid], the activity at 10 µM under setting [1] was 21%. Turning to `OB(O)c1cc(C(F)(F)F)cc(C(F)(F)F)c1` [Example 56, 3,5-Bis(Trifluoromethyl)phenylboronic acid], the activity at 10 µM under setting [1] came out at 89%.

As for `OB(O)c1cc(Cl)cc(Cl)c1` [Example 57, 3,5-Dichlorophenylboronic acid], under setting [1], the activity at 10 µM came out at 46%.

For `OB(O)c1ccc(F)c(Cl)c1` [Example 58, 3-Chloro-4-fluorophenylboronic acid], the activity at 10 µM under setting [1] amounted to 35%. Same read-out and setting: the result for `OB(O)c1cc(F)cc(F)c1` [Example 59, 3,5-Difluorophenylboronic acid] reads 25%; that for `OB(O)c1cccc(F)c1` [Example 60, 3-Fluorophenylboronic acid], 47%; that for `CCCCCc1ccc(B(O)O)c(F)c1F` [Example 61, 2,3-DIFLUORO-4-PENTYLPHENYLBORONIC ACID], 85%. Take `OB(O)c1ccc(OCc2ccccc2)c(F)c1` [Example 62, 3-FLUORO-4-BENZYLOXYPHENYL)BORONIC ACID]: the “TEST 3180.2 HSL Activity (%)” value under setting [1] was determined as 93%. In the case of `OB(O)c1cc(F)c(F)c(F)c1` [Example 63, 3,4,5-Trifluorophenylboronic acid], the activity at 10 µM under setting [1] came to 26%. Still for that read-out and setting: to `OB(O)c1cc(Cl)cc(Cl)c1Cl` [Example 64, 2,3,5-Trichlorophenylboronic acid] belongs 76%; to `OB(O)c1cc(Cl)ccc1Cl` [Example 65, 2,5-Dichlorophenylboronic acid], 55%; to `OB(O)c1cccc(F)c1F` [Example 66, 2,3-Difluorophenylboronic acid], 55%. Same read-out and setting: to `OB(O)c1cc(F)ccc1F` [Example 67, 2,5-Difluorophenylboronic acid] belongs 34%; to `CC(=O)Nc1ccc(B2OC(C)(C)C(C)(C)O2)cc1` [Example 68, 4′-(4,4,5,5-TETRAMETHYL-1,3,2-DIOXABOROLAN-2-YL)ACETANILIDE], 86%; to `OB(O)c1ccc(F)c(F)c1` [Example 69, 3,4-Difluorophenylboronic acid], 45%.

Regarding `OB(O)c1cccc(Cl)c1Cl` [Example 70, 2,3-Dichlorophenylboronic acid], under setting [1], the activity at 10 µM turned out to be 66%. Consider `OB(O)c1ccc(Br)c(F)c1F` [Example 71, 2,3-Difluoro-4-bromophenylboronic acid], for which, under setting [1], the activity at 10 µM amounted to 61%. Turning to `COc1ccc(F)cc1B(O)O` [Example 73, 2-Methoxy5-fluorophenylboronic acid], under setting [1], the activity at 10 µM worked out at 62%. As to `COC1OC2COB(c3ccccc3)OC2C(O)C1O` (stereo not drawn) [Example 78, 6-Methoxy-2-phenyl-hexahydro-pyrano[3,2-a][1,3,2]dioxaborinine-7,8-diol], under setting [1], the “TEST 3180.2 HSL Activity (%)” value turned out to be 82%. For the molecule `CCCCCC1COB(c2ccc(C(=O)O)c(F)c2)OC1` [Example 79, 2-Fluoro-4-(5-pentyl-[1,3,2]dioxaborinan-2-yl)-benzoic acid], the activity at 10 µM under setting [1] was determined as 100%. On to `Ic1cccc(OCC2COB(c3ccccc3)O2)c1` (stereo not drawn) [Example 80, 4-(3-Iodo-phenoxymethyl)-2-phenyl-[1,3,2]dioxaborolane], for which the activity at 10 µM under setting [1] was 80%. As for `CC1(C)OB(c2ccsc2[Si](C)(C)C)OC1(C)C` [Example 81, 3′-(4,4,5,5-TETRAMETHYL-1,3,2-DIOXABOROLAN-2-YL)-2-trimethylsilylthiophen], the “TEST 3180.2 HSL Activity (%)” value under setting [1] is reported as 85%. `CC1(C)OB(c2csc([N+](=O)[O-])c2)OC1(C)C` [Example 82, 4′-(4,4,5,5-TETRAMETHYL-1,3,2-DIOXABOROLAN-2-YL)2-nitrothiophene]: the “TEST 3180.2 HSL Activity (%)” value under setting [1] turned out to be 96%. Turning to `OB(O)c1csc2ccccc12` [Example 83, 1-BENZOTHIOPHEN-3-YLBORONIC ACID], the activity at 10 µM under setting [1] came to 76%. For `O=Cc1sccc1B(O)O` [Example 84, 2-FORMYL-3-THIOPHENEBORONIC ACID], under setting [1], the activity at 10 µM amounted to 92%. The same measure, in the same setting: to `c1ccc2c(c1)OB(c1ccsc1)O2` [Example 85, 2-THIEN-3-YL-1,3,2-BENZODIOXABOROLE] belongs 89%.

Take `Cc1cc(B2OCCCO2)sc1C=O` [Example 87, 2-(2-FORMYL-3-METHYLTHIEN-5-YL)-1,3,2-DIOXABORINANE]: the activity at 10 µM was 75%. Regarding `Cc1csc(B(O)O)c1` [Example 88, 4-METHYLTHIOPHENE-2-BORONIC ACID], the activity at 10 µM under setting [1] came out at 49%.

In the case of `Cc1ccc(B(O)O)o1` [Example 89, 5-METHYLFURAN-2-BORONIC ACID], the activity at 10 µM under setting [1] came to 87%. Regarding `Cc1ccc(B(O)O)s1` [Example 90, 5-Methylthiophene-2-boronic acid], the activity at 10 µM under setting [1] stood at 48%. Still for that read-out and setting: the result for `OB(O)c1cc2ccccc2o1` [Example 91, BENZO[B]FURAN-2-BORONIC ACID] reads 57%.

On to `OB(O)c1cc2ccccc2s1` [Example 92, Benzo[B]thiophene-2-boronic acid], for which the activity at 10 µM under setting [1] amounted to 53%. On the same count and under the same terms, to `OB(O)c1ccco1` [Example 93, Furan-2-boronic acid] belongs 89%; to `OB(O)c1ccc(Cl)s1` [Example 94, 5-Chlorothiophene-2-boronic acid], 17%.
